These results are taken from US12077503B2, “Substituted cyclic amides and their use as herbicides” (FMC CORPORATION, priority 2015, dated 2024).

Common to all, as to assay type: in vivo
Experiment [1] has as its system velvetleaf (Abutilon theophrasti). In words: Test A postemergence. The following applies: Abutilon theophrasti, post-emergence, 240 h, Postemergence; for pest or weed control at 125 g/ha: 125 g ai/ha, visual rating about 10 d after treatment, read-out: Velvetleaf plant response rating (0 to 100 scale); for pest or weed control at 500 g/ha: 500 g ai/ha, visual injury, 0 to 100 scale (0 no effect, 100 complete control), approx. 10 d, read-out: Plant response rating, Velvetleaf. In a few lines: (§1)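 Compounds were formulated in a non-phytotoxic solvent mixture with surfactant and applied as a preemergence directed soil spray after seeding, or sprayed postemergence over plants 2 to 10 cm tall at the one- to two-leaf stage. Evaluation after about 10 d compared treated with untreated controls, using a scale from 0 (no effect) to 100 (complete control).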

Experiment [2] concerns morningglory (Ipomoea spp.). In words: Test A postemergence. As to conditions: Ipomoea, post-emergence, 240 h, Postemergence; for pest or weed control at 125 g/ha: 125 g ai/ha, visual rating about 10 d after treatment, read-out: Morningglory plant response rating (0 to 100 scale); for pest or weed control at 500 g/ha: 500 g ai/ha, visual injury, 0 to 100 scale (0 no effect, 100 complete control), approx. 10 d, read-out: Plant response rating, Morningglory. In a few lines:
as §1

Experiment [3] has as its system crabgrass, large (Digitaria sanguinalis). In words: Test A postemergence. The following applies: Digitaria sanguinalis, post-emergence, 240 h, Postemergence; for pest or weed control at 125 g/ha: 125 g ai/ha, visual rating about 10 d after treatment, read-out: Crabgrass, Large plant response rating (0 to 100 scale); for pest or weed control at 500 g/ha: 500 g ai/ha, visual injury, 0 to 100 scale (0 no effect, 100 complete control), approx. 10 d, read-out: Plant response rating, Crabgrass, Large. The method, boiled down: as §1

Experiment [4] relates to velvetleaf (Abutilon theophrasti). Kind of experiment: Test A preemergence. As to conditions: Abutilon theophrasti, pre-emergence, 240 h, 0 to 100 scale (0 no effect, 100 complete control), read-out: Plant response rating, Velvetleaf; for pest or weed control at 500 g/ha: 500 g ai/ha, preemergence; for pest or weed control at 125 g/ha: Preemergence, 125 g ai/ha. The method, boiled down:
as §1

The subject of experiment [5] is wheat (Triticum aestivum). Kind of experiment: Test A preemergence. As to conditions: Triticum aestivum, pre-emergence, 240 h, 0 to 100 scale (0 no effect, 100 complete control), read-out: Plant response rating, Wheat; for plant injury at 500 g/ha: 500 g ai/ha, preemergence; for plant injury at 125 g/ha: Preemergence, 125 g ai/ha. The method, boiled down: as §1
Experiment [6] concerns corn (Zea mays). In words: Test A preemergence. The following applies: Zea mays, pre-emergence, 240 h, 0 to 100 scale (0 no effect, 100 complete control); for Corn plant response rating (crop injury, 0 = no effect, 100 = complete kill) at 500 g/ha: 500 g ai/ha, preemergence; for Corn plant response rating (crop injury, 0 = no effect, 100 = complete kill) at 125 g/ha: Preemergence, 125 g ai/ha. In a few lines:
as §1

For experiment [7], the system named is morningglory (Ipomoea spp.). Kind of experiment: Test A preemergence. The following applies: Ipomoea, pre-emergence, 240 h, 0 to 100 scale (0 no effect, 100 complete control), read-out: Plant response rating, Morningglory; for pest or weed control at 500 g/ha: 500 g ai/ha, preemergence; for pest or weed control at 125 g/ha: Preemergence, 125 g ai/ha. The method, boiled down:
as §1

In experiment [8] the test system is crabgrass, large (Digitaria sanguinalis). Kind of experiment: Test A preemergence. As to conditions: Digitaria sanguinalis, pre-emergence, 240 h, 0 to 100 scale (0 no effect, 100 complete control), read-out: Plant response rating, Crabgrass, Large; for pest or weed control at 500 g/ha: 500 g ai/ha, preemergence; for pest or weed control at 125 g/ha: Preemergence, 125 g ai/ha. In a few lines: as §1

Take `O=C1NCC(c2ccccc2)C1C(=O)Nc1cc(F)ccc1F` (centres unmarked) [Compound 1359]: the pest or weed control at 125 g/ha in experiment [1], in experiment [2], in experiment [3], in experiment [4], in experiment [7] and in experiment [8] was 0% throughout. Moreover, the pest or weed control at 500 g/ha in experiment [1] stood at 0%; in experiment [2], 0%; in experiment [3], 0%; in experiment [4], 0%; in experiment [7], 0%; in experiment [8] it was 20%. Also, in experiment [5], the plant injury at 500 g/ha was found to be 0%. Besides, the plant injury at 125 g/ha in experiment [5] amounted to 0%. Moreover, the Corn plant response rating (crop injury, 0 = no effect, 100 = complete kill) at 500 g/ha in experiment [6] was found to be 0%. In experiment [6], this molecule yielded a Corn plant response rating (crop injury, 0 = no effect, 100 = complete kill) at 125 g/ha of 0%.

As to `O=C1NCC(c2ccccc2)C1C(=O)Nc1ccc(C(F)(F)F)cc1` (centres unmarked) [Compound 1362], the pest or weed control at 125 g/ha in experiment [1], in experiment [2], in experiment [3], in experiment [4], in experiment [7] and in experiment [8] was 0% in each case. For the same molecule, the pest or weed control at 500 g/ha in experiment [1], in experiment [2], in experiment [3], in experiment [4], in experiment [7] and in experiment [8] was 0% in each case. In experiment [5], the plant injury at 500 g/ha was determined as 0%. The plant injury at 125 g/ha in experiment [5] was determined as 0%. Further, the Corn plant response rating (crop injury, 0 = no effect, 100 = complete kill) at 500 g/ha in experiment [6] worked out at 0%. Moreover, the Corn plant response rating (crop injury, 0 = no effect, 100 = complete kill) at 125 g/ha in experiment [6] worked out at 0%.
